# From US20060252731A1, “Methods of treating recurrent aphthous stomatitis” (priority 2005, published 2006)
# Legend:
# [1] = system: minor aphthous ulceration; test: Clinical study of SDD versus placebo for relief of symptoms of aphthous ulceration; assay type: in vivo, human; details: for number of ulcers / pain associated with ulcers: 20 mg twice a day, vis-à-vis placebo group
# Experimental: The objective of this study was to evaluate the clinical effects of a 20 mg dose of doxycycline administered twice daily (i.e., a sub-antibacterial dose of doxycycline, “SDD”) vis-à-vis a placebo administered twice daily for the relief of symptoms of aphthous ulceration.
# The study was a single center, placebo-controlled, double-bind, parallel group study. The study participants were fifty patients of an oral medicine clinic. The participants were screened to identify any known predisposing factors prior to the study.
# The participants were administered SDD or placebo for three months. The participants were permitted to use any additional ulcer management therapies as needed. The participants kept daily diaries to record pain caused by ulcers using the Visual Analogue Scale (VAS), and to record the number of new ulcers each day. The VAS quantified pain over a continuum represented by a horizontal line 100 mm in length.
# At the baseline, the oral soft tissues and ulcer count were evaluated in each of the participants. The ulcer history of each participant was taken. At the third month, oral soft tissues and ulcer count were reevaluated.
# Of the 50 participants, 25 were administered SDD; and 25 were administered placebo. Of the 50 participants, 32 were females, 18 were males; and 49 were Caucasian, and one was Asian. Thirty-three participants completed the study. Of these participants, 16 were in the SDD group and 17 were in the placebo group.
# [2] = Plasma concentration of COL-3 in humans; assay type: in vivo; details: dose of about 10 to about 20 mg/day
# Experimental: A preferred COL is 6-demethyl-6-deoxy-4-de(dimethylamino)tetracycline (COL-3). COL-3 is administered in doses of up to about 200 mg/day, preferably about 150 mg/day, more preferably about 100 mg/day, or in amounts that result in plasma concentrations of up to about 50 μg/ml, about 40 μg/ml or about 30 μg/ml. For example, a dose of about 10 to about 20 mg/day of COL-3 produces plasma concentrations in humans of about 1.0 μg/ml.
# aphthous ulcers = details: continuous systemic treatment, antimicrobial amounts; cited from earlier work
molecule,measurement,setting,value
doxycycline hyclate [SDD],treatment of RAS,[1]; 20 mg doxycycline twice daily for three months,effectively treated RAS
same,Mean number of ulcers present at month 3,"[1]; 20 mg doxycycline twice daily for three months, placebo group 1.24, P >0.05",0.69
same,Mean number of days using additional treatments,"[1]; 20 mg doxycycline twice daily for three months, placebo group 13.4, P >0.05",11.5
same,Mean total number of new ulcers in 3 months,"[1]; 20 mg doxycycline twice daily for three months, placebo group 35, P >0.05(0.07)",17
same,number of ulcers,[1],fewer ulcers
same,pain associated with ulcers,[1],less pain
same,number of ulcers,[1]; listed as doxycycline hyclate,significant reduction
same,pain associated with ulcers,[1]; listed as doxycycline hyclate,significant reduction
same,Mean cumulative VAS (mm),"[1]; pain by Visual Analogue Scale, daily diaries over three months, placebo group 1435, P >0.05",901 mm
"NC(=O)C1=C(O)C[C@@H]2C[C@@H]3Cc4cccc(O)c4C(=O)C3=C(O)[C@]2(O)C1=O [COL-3, 6-demethyl-6-deoxy-4-de(dimethylamino)tetracycline]",plasma concentrations in humans,[2],about 1.0 μg/ml
"CN(C)[C@@H]1C(O)=C(C(N)=O)C(=O)[C@@]2(O)C(O)=C3C(=O)c4c(O)cccc4[C@@](C)(O)[C@H]3C[C@@H]12 [tetracycline, Tetracycline]",remission phases of aphthous ulcers,aphthous ulcers,long remission phases
